The source of these data is ChEMBL document CHEMBL2424654, “Optimization of enzyme-based ultrasonic/microwave-assisted extraction and evaluation of antioxidant activity of orcinol glucoside from the rhizomes of Curculigo orchioides Gaertn” (Med Chem Res, 2013).

What all share (format): functional
In assay [1] the test system is Radical scavenging activity. Put plainly: Antioxidant activity assessed as DPPH radical scavenging activity at 2 mg/ml.
The test system of assay [2] is Radical scavenging activity. Put plainly: Antioxidant activity assessed as DPPH radical scavenging activity.
Assay [3] can be described thus: Antioxidant activity assessed as hydroxyl radical scavenging activity at 2 mg/ml.
A short description of assay [4]: Antioxidant activity assessed as reducing power at 0.5 to 2 mg/ml.
A short description of assay [5]: Antioxidant activity assessed as superoxide anion radical scavenging activity at 2 mg/ml.
Assay [6] can be described thus: Antioxidant activity assessed as hydroxyl radical scavenging activity.

In brackets after ≈: the same amount, converted by molar mass. Activity calls are given as the source filed them. The rule behind the calls is not given here.

As to `Cc1cc(O)cc(O[C@@H]2O[C@H](CO)[C@@H](O)[C@H](O)[C@H]2O)c1`, the Activity in assay [1] was 69.3%; in assay [3], 77.5%; in assay [5], 70.2%; in assay [6], “Dose-dependent effect”. Further, the IC50 in assay [2] was found to be 900 µg/mL (≈ 3.14 mM). Also, in assay [4], the result was Active.
